Data from patent US9512114B2, “Substituted aminopyrimidine compounds and methods of use” (Calitor Sciences, LLC, priority 2013, dated 2016).

Key:
[1] = target: PI3K (p110δ/p85α) (h) (Homo sapiens (Human), UniProt O00329); assay: PI3K (p110δ/p85α) (h) non-radioactive HTRF kinase assay; type: biochemical; conditions: performed at Millipore UK Ltd
Method: The above assay procedure can be used to determine the IC50 for inhibition and/or the inhibition constant, Ki.
PI3K (p110δ/p85α) (h) [Non-Radioactive Assay]
PI3K (p110δ/p85α) (h) is incubated in assay buffer containing 10 μM phosphatidylinositol-4, 5-bisphosphate and MgATP (concentration as required). The reaction is initiated by the addition of the MgATP mix. After incubation for 30 minutes at room temperature, the reaction is stopped by the addition of stop solution containing EDTA and biotinylated phosphatidylinositol-3,4,5-trisphosphate. Finally, detection buffer is added, which contains europium-labelled anti-GST monoclonal antibody, GST-tagged GRP1 PH domain and streptavidin-allophycocyanin. The plate is then read in timeresolved fluorescence mode and the homogenous time-resolved fluorescence (HTRF) signal is determined according to the formula HTRF=10000×(Em665 nm/Em620 nm).
The kinase assays described herein were performed at Millipore UK Ltd, Dundee Technology Park, Dundee DD2 1SW, UK.

[2] = Pharmacokinetic profiles in rats; type: in vivo, rat; conditions: for Cl/F / AUC(0-t) / half-life / Vd: iv dosing 1 mg/kg; for F: oral vs iv (iv 1 mg/kg; p.o. generally 5 or 10 mg/kg); for AUC(0-t) / half-life / Vd: rat, plasma; for Vd: read-out: Vss
Method: The compounds disclosed herein are assessed in pharmacokinetic studies in mice, rats, dogs or monkeys. The compounds are administered as a water solution, 2% HPMC+1% TWEEN®80 in water solution, 5% DMSO+5% solutol in saline, 4% MC suspension or capsule. For the intravenous administration, the animals are generally given at 1 or 2 mg/kg dose. For the oral (p.o.) dosing, mice and rats are generally given 5 or 10 mg/kg dose, and dogs and monkeys are generally given 10 mg/kg dose. The blood samples (0.3 mL) are drawn at 0.25, 0.5, 1.0, 2.0, 3.0, 4.0, 6.0, 8.0, 12 and 24 h time points or 0.083, 0.25, 0.5, 1.0, 2.0, 4.0, 6.0, 8.0 and 24 h time points and centrifuged at 3,000 or 4000 rpm for 2 to 10 min. The plasma solutions are collected, stored at −20° C. or −70° C. until analyzed by LC/MS/MS as described above.

[3] = Compound stability in rat liver microsomes; type: in vitro ADME; conditions: pH 7.4; for CLint scaled at 5 μM: liver microsomes, in vivo CLint extrapolated from rat liver microsome incubation; for half-life at 5 μM: rat liver microsomes 0.5 mg protein/mL, compound 5 μM, NADPH 1.0 mM, 37° C., read-out: Rat T1/2
Method: (§1) The LC/MS/MS system used in the analysis consists of an Agilent 1200 Series vacuum degasser, binary pump, well-plate autosampler, thermostatted column compartment, the Agilent G6430 Triple Quadrupole Mass Spectrometer with an electrosprayionization (ESI) source. Quantitative analysis was carried out using MRM mode. The parameters for MRM transitions are in the Table A.
(§2) An Agilent XDB-C18, 2.1×30 mm, […] column was used for the analysis. 5 μL of the samples were injected. Analysis condition: The mobile phase was 0.1% formic acid in water (A) and 0.1% formic acid in methanol (B). The flow rate was 0.4 mL/min. And the gradient of Mobile phase was in the Table B.
(§3) Alternatively, an Agilent 6330 series LC/MS/MS spectrometer equipped with G1312A binary pumps, a G1367A autosampler and a G1314C UV detector were used in the analysis. An ESI source was used on the LC/MS/MS spectrometer. The analysis was done in positive ion mode as appropriate and the MRM transition for each analyte was optimized using standard solution. A Capcell MP-C18 100×4.6 mm I.D., […] column (Phenomenex, Torrance, Calif., USA) was used during the analysis. The mobile phase was 5 mM ammonia acetate, 0.1% MeOH in water (A): 5 mM ammonia acetate, 0.1% MeOH in acetonitrile (B) (70:30, v/v). The flow rate was 0.6 mL/min. Column was maintained at ambient temperature. 20 μL of the samples were injected.
(§4) Human or rat liver microsomes incubations were conducted in duplicate in polypropylene tubes. The typical incubation mixtures consisted of human or rat liver microsomes (0.5 mg protein/mL), compounds of interest (5 μM) and NADPH (1.0 mM) in a total volume of 200 μL potassium phosphate buffer (PBS, 100 mM, pH 7.4). Compounds were dissolved in DMSO and diluted with PBS such that the final concentration of DMSO was 0.05%. The enzymatic reactions were commenced with the addition of protein after a 3-min preincubation and incubated in a water bath open to the air at 37° C. Reactions were terminated at various time points (0, 5, 10, 15, 30, 60 min) by adding equal volume of ice-cold acetonitrile. The samples were stored at −80° C. until LC/MS/MS assays.
(§5) The concentrations of compounds in the incubation mixtures of human or rat liver microsomes were determined by a LC/MS/MS method. The ranges of the linearity in the concentration range were determined for each tested compounds.
(§6) A parallel incubation was performed using denatured microsomes as the negative control, and reactions were terminated at various time points (0, 15, 60 min) after incubation at 37° C.
(§7) Dextromethorphan (70 μM) was selected as the positive control, and reactions were terminated at various time points (0, 5, 10, 15, 30, 60 min) after incubation at 37° C. Both positive and negative control samples were included in each assay to ensure the integrity of the microsomal incubation system.
(§8) The concentrations of compounds in human or rat liver microsome incubations were plotted as a percentage of the relevant zero time point control for each reaction. The in vivo CLint were extrapolated (ref.: Naritomi, Y.; Terashita, S.; Kimura, S.; Suzuki, A.; Kagayama, A.; and Sugiyama, Y.; Prediction of human hepatic clearance from in vivo animal experiments and in vitro metabolic studies with liver microsomes from animals and humans. Drug Metab. Dispos., 2001, 29: 1316-1324).

[4] = Compound stability in human liver microsomes; type: in vitro ADME; conditions: pH 7.4; for CLint scaled at 5 μM: liver microsomes, in vivo CLint extrapolated from human liver microsome incubation; for half-life at 5 μM: human liver microsomes 0.5 mg protein/mL, compound 5 μM, NADPH 1.0 mM, 37° C., read-out: Human T1/2
Method: as §1, §2, §3, §4, §5, §6, §7, §8

Sequence of PI3K (p110δ/p85α) (h) (O00329 whole entry): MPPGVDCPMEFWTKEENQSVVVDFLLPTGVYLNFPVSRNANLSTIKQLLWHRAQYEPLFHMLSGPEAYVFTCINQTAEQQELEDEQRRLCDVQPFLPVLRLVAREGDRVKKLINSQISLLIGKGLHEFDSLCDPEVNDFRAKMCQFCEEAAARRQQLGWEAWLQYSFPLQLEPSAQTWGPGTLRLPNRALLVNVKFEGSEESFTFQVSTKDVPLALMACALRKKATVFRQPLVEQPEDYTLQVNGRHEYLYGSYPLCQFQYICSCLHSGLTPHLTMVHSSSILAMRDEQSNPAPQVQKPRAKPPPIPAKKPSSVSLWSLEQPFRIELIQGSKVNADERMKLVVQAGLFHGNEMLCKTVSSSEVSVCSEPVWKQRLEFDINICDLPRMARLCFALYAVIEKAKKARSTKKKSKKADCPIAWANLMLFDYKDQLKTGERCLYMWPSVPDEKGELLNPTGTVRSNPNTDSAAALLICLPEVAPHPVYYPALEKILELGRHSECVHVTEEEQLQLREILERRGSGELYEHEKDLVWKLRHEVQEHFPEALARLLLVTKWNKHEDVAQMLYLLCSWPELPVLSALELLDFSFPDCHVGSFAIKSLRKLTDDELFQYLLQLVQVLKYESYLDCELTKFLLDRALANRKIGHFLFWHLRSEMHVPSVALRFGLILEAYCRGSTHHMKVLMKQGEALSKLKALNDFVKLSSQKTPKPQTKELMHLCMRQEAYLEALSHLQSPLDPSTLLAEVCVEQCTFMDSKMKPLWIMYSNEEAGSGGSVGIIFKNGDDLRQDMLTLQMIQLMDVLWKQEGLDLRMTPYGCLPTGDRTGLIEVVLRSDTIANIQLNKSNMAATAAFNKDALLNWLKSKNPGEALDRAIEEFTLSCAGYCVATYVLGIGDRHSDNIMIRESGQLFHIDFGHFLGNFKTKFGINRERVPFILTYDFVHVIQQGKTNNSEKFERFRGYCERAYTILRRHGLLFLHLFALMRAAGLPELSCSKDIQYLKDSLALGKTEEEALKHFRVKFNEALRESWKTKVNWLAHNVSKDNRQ
Sequence of PI3K (p110δ/p85α) (h) (P27986 whole entry partner): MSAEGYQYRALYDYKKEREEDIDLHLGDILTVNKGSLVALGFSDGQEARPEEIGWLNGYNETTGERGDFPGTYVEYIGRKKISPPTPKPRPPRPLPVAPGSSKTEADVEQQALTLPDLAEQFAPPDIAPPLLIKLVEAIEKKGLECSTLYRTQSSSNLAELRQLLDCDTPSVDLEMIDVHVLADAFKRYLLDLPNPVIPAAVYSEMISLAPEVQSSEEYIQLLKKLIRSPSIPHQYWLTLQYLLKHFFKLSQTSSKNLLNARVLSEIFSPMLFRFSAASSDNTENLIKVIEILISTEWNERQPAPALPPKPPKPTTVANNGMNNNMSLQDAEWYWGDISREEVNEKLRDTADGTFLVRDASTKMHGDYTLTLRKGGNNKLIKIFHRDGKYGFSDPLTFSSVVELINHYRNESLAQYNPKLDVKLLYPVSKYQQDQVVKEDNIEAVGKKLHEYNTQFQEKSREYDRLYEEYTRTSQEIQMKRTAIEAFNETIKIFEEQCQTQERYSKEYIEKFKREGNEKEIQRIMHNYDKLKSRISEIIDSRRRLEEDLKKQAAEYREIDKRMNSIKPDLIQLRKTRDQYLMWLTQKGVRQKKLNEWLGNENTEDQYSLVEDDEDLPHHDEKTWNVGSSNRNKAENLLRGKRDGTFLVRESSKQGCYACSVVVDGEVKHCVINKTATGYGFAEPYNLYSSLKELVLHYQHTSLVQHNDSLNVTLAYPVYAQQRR

| IC50 [1] | Cl/F [2] | F [2] | AUC(0-t) [2] | half-life [2] | Vd [2] | CLint scaled at 5 μM [3] | half-life at 5 μM [3] | CLint scaled at 5 μM [4] | half-life at 5 μM [4] | Compound |
| --- | --- | --- | --- | --- | --- | --- | --- | --- | --- | --- |
| – | 12.7 mL/min/kg | 163.6% | 1300 ng·h/mL | 97.2 min | 1.9 L/kg | 26.7 mL/min/kg | 92.9 min | 28.4 mL/min/kg | 61.3 min | C[C@H](Nc1ncnc(N)c1-c1nnn(C)n1)c1cc2cccc(-c3cnn(C)c3)c2c(=O)n1C1CC1 [Ex. 33, (S)-3-(1-((6-amino-5-(2-methyl-2H-tetrazol-5-yl)pyrimidin-4-yl)amino)ethyl)-2-cyclopropyl-8-(1-methyl-1-pyrazol-4-yl)isoquinolin-1 (2H)-one] |
| – | 22.7 mL/min/kg | 48.92% | 758 ng·h/mL | 51.6 min | 0.92 L/kg | 99.9 mL/min/kg | 24.9 min | 287 mL/min/kg | 6.06 min | C[C@H](Nc1ncnc(N)c1-c1nnn(C)n1)c1cc2cccc(Cl)c2c(=O)n1-c1ccccc1 [Ex. 15, (S)-3-(1-((6-amino-5-(2-methyl-2H-tetrazol-5-yl)pyrimidin-4-yl)amino)ethyl)-8-chloro-2-phenylisoquinolin-1(2H)-one] |
| – | 50 mL/min/kg | 81.33% | 333 ng·h/mL | 86.4 min | 5.35 L/kg | 169 mL/min/kg | 14.7 min | 86.9 mL/min/kg | 20 min | CC[C@H](Nc1ncnc(N)c1-c1nnc(C)o1)c1cc2cccc(Cl)c2c(=O)n1C1CC1 [Ex. 10, S)-3-(1-((6-amino-5-(5-methyl-1,3,4-oxadiazol-2-yl)pyrimidin-4-yl)aminopropyl)-8-chloro-2-cyclopropylisoquinolin-1(2H)-one] |
| – | 10 mL/min/kg | 80.6% | 1780 ng·h/mL | 78 min | 0.88 L/kg | 38.3 mL/min/kg | 64.9 min | 19 mL/min/kg | 91.5 min | C[C@H](Nc1ncnc(N)c1-c1nnn(C)n1)c1cc2cccc(-c3cnn(C)c3)c2c(=O)n1-c1ccccc1 [Ex. 29, (S)-3-(1-((6-amino-5-(2-methyl-2H-tetrazol-5-yl)pyrimidin-4-yl)amino)ethyl)-8-(1-methyl-1H-pyrazol-4-yl)-2-phenylisoquinolin-1(2H)-one] |
| – | 17.3 mL/min/kg | 139.0% | 934 ng·h/mL | 136 min | 2.9 L/kg | 26.1 mL/min/kg | 95.2 min | 18.9 mL/min/kg | 92.2 min | CC[C@H](Nc1ncnc(N)c1-c1noc(C)n1)c1cc2cccc(-c3cnn(C)c3)c2c(=O)n1C1CC1 [Ex. 31, (S)-3-(1-((6-amino-5-(5-methyl-1,2,4-oxadiazol-3-yl)pyrimidin-4-yl)amino)propyl)-2-cyclopropyl-8-(1-methyl-1H-pyrazol-4-yl)isoquinolin-1(2H)-one] |
| – | 23.7 mL/min/kg | 96.4% | 678 ng·h/mL | 92.4 min | 2.74 L/kg | 29.9 mL/min/kg | 82.9 min | 42.4 mL/min/kg | 41 min | Cc1nc(-c2c(N)ncnc2N[C@@H](C)c2cc3cccc(-c4cnn(C)c4)c3c(=O)n2C2CC2)no1 [Ex. 34, (S)-3-(1-((6-amino-5-(5-methyl-1,2,4-oxadiazol-3-yl)pyrimidin-4-yl)amino)ethyl)-2-cyclopropyl-8-(1-methyl-1H-pyrazol-4-yl)isoquinolin-1 (2H)-one] |

Second part, the molecule before the results:

| Compound | IC50 [1] | Cl/F [2] | F [2] | AUC(0-t) [2] | half-life [2] | Vd [2] | CLint scaled at 5 μM [3] | half-life at 5 μM [3] | CLint scaled at 5 μM [4] | half-life at 5 μM [4] |
| --- | --- | --- | --- | --- | --- | --- | --- | --- | --- | --- |
| CC[C@H](Nc1ncnc(N)c1-c1noc(C)n1)c1cc2cccc(F)c2c(=O)n1-c1ccccc1 [Ex. 18, (S)-3-(1-((6-amino-5-(5-methyl-1,2,4-oxadiazol-3-yl)pyrimidin-4-yl)amino)propyl)-8-fluoro-2-phenylisoquinolin-1(2H)-one] | 32 nM | 51.7 mL/min/kg | 38.15% | 323 ng·h/mL | 46.5 min | 1.66 L/kg | 330 mL/min/kg | 7.53 min | 226 mL/min/kg | 7.7 min |
| CC[C@H](Nc1ncnc(N)c1-c1nc(C)no1)c1cc2cccc(C)c2c(=O)n1-c1ccccc1 [Ex. 2, (S)-3-(1-((6-amino-5-(3-methyl-1,2,4-oxadiazol-5-yl)pyrimidin-4-yl)amino)propyl)-8-methyl-2-phenylisoquinolin-1(2H)-one] | 2 nM | 79 mL/min/kg | 46.57% | 215 ng·h/mL | 69.6 min | 4.42 L/kg | 418 mL/min/kg | 5.94 min | 840 mL/min/kg | 2.07 min |
| CC[C@H](Nc1ncnc(N)c1-c1nc(C)no1)c1cc2cccc(Cl)c2c(=O)n1-c1ccccc1 [Ex. 3, (S)-3-(1-((6-amino-5-(3-methyl-1,2,4-oxadiazol-5-yl)pyrimidin-4-yl)amino)propyl)-8-chloro-2-phenylisoquinolin-1(2H)-one] | – | 128 mL/min/kg | 12.71% | 131 ng·h/mL | 44.4 min | 4.96 L/kg | 148 mL/min/kg | 16.7 min | 134 mL/min/kg | 12.9 min |
| C[C@H](Nc1ncnc(N)c1-c1nnn(C)n1)c1cc2cccc(Cl)c2c(=O)n1C1CC1 [Ex. 12, (S)-3-(1-((6-amino-5-(2-methyl-2H-tetrazol-5-yl)pyrimidin-4-yl)amino)ethyl)-8-chloro-2-cyclopropylisoquinolin-1(2H)-one] | 12 nM | 30 mL/min/kg | 32.09% | 555 ng·h/mL | 42 min | 1.42 L/kg | – | – | – | – |
